Experiments:
Format in all cases: cell-based
[1] = tested on: primary cultured hepatocytes; assay: Cell-protecting effect against cold shock in primary cultured hepatocytes (WST-1); settings: Rattus norvegicus, Hepatocyte, 37° C. for 1 hour, 4° C. for 22 hours, then 37° C., cell viability by WST-1
Experimental: In order to reproduce a condition for preservation prior to organ transplantation, primary cultured hepatocytes were prepared according to Experimental Example 1 and treated with the compounds of the working examples at 9 different concentrations that had been prepared by 3-fold serial dilution method using a starting concentration of 25 μM. The mixture was cultured at 37° C. for 1 hour, stored at 4° C. for 22 hours, and then transferred into an incubator at 37° C. and cultured therein. Cell viability was measured by the optical density at 440 nm according to the WST-1 method (MK-400, Takeda), and IC50 (unit: μM) was obtained using prism software (see Table 1).

[2] = tested on: primary hepatocytes isolated from rats; assay: Hepatocyte-protecting effect: viability of isolated primary hepatocytes in culture (WST-1); settings: rat primary hepatocytes; treated at 1 or 10 μM; WST-1, optical density at 440 nm
Experimental: If cells are isolated from in vivo environment and their culture or preservation in vitro is begun, it would act as a stress to cells, and the apoptosis mechanism would begin to work. For preservation of organs or tissues, it is necessary to protect them from such a primary stress.
In order to verify this, primary hepatocytes isolated from rats were treated with the compounds of the working examples to observe how well the compounds can protect them from a primary stress. Primary hepatocytes were isolated using the Seglen PO method (Experimental Cell Research 74 (1972) pp. 450-454). Briefly, hepatocytes were isolated according to the two-step collagenase perfusion method and then centrifuged using percoll gradient (Kreamer BL etc., In Vitro Cellular & Developmental Biology 22 (1986) pp. 201-211) at low speed (500 rpm) for 10 minutes to remove dead cells. Viability of hepatocytes was maintained at 90% or more. Cells were suspended in HepatoZYME media (Gibco BRL) and counted. 1.5×10^4 cells of 100 μl were put into a 96-well plate (BD biocoat) coated with collagen and attached to the bottom for 3-4 hours. […] After 24, 72 or 144 hours, cell viability was measured to evaluate a hepatocyte-protecting effect.
Cell viability was measured by the optical density at 440 nm according to the WST-1 method (MK-400, Takeda). […]

[3] = tested on: human embryonic lung cell line (LB-HEL); assay: Cell-protecting effect against cold shock in LB-HEL cells (WST-1); settings: cold shock at 4° C. for 24 hours, then 37° C., cell viability by WST-1
Experimental: The same results as above were also obtained in other types of cells such as human embryonic lung cell line (LB-HEL) as well as hepatocytes (see FIG. 2 and Table 2). More specifically, LB-HEL cells were plated at 1.5×10^6 cells/well using DMEM medium (Gibco BRL) and treated with DMSO, nec-1, IM-54 or the compounds of Examples 126, 127, 137 and 138 at indicated concentrations. After storage at 4° C. for 24 hours, the mixture was transferred into an incubator at 37° C. and cultured therein. In order to verify recovery capacity at 37° C., cell viability after 24 hours post-transfer was measured by the optical density at 440 nm according to the WST-1 method (MK-400, Takeda) and compared with cell viability prior to cold shock (FIG. 2).

OC[C@@H]1CSC(c2cc3cccc(NC4CCCC4)c3[nH]2)=N1 [Example 5, [(R)-2-(7-cyclopentylamino-1H-indol-2-yl)-4,5-dihydro-1,3-thiazol-4-yl]-methanol]
IC50 [1]: < 120 nM

OC[C@@H]1CSC(c2cc3cccc(NC4CCOCC4)c3[nH]2)=N1 [Example 7, {(R)-2-[7-(tetrahydro-pyran-4-ylamino)-1H-indol-2-yl]-4,5-dihydro-thiazol-4-yl}-methanol]
IC50 [1]: < 400 nM

O=C(O)C[C@@H]1CSC(c2cc3cc(Br)cc(NC4CCCC4)c3[nH]2)=N1 [Example 16, [(R)-2-(5-bromo-7-cyclopentylamino-1H-indol-2-yl)-4,5-dihydro-thiazol-4-yl]-acetic acid]
IC50 [1]: 3560 nM

CCOc1cc(NC2CCCC2)c2[nH]c(C3=N[C@H](CC(=O)O)CS3)cc2c1 [Example 17, [(R)-2-(7-cyclopentylamino-5-ethoxy-1H-indol-2-yl)-4,5-dihydro-thiazol-4-yl]-acetic acid]
IC50 [1]: < 120 nM

O=C(O)C[C@H]1CSC(c2cc3cc(Oc4ccccc4)cc(NC4CCCC4)c3[nH]2)=N1 [Example 21, [(S)-2-(7-cyclopentylamino-5-phenoxy-1H-indol-2-yl)-4,5-dihydro-thiazole-4-yl]-acetic acid]
viability after 144 hours, compared with viability after 24 hours [2]: ≥ 80%
IC50 [1]: < 120 nM

CCOC(=O)CC[C@@H]1CSC(c2cc3cc(Cl)cc(NC4CCCC4)c3[nH]2)=N1 [Example 22, 3-[(R)-2-(5-chloro-7-cyclopentylamino-1H-indol-2-yl)-4,5-dihydro-thiazol-4-yl]-propionic acid ethyl ester]
IC50 [1]: 970 nM

c1ccc(-c2cc3cccc(NC4CCCC4)c3[nH]2)nc1 [Example 24, cyclopentyl-(2-pyridin-2-yl-1H-indol-7-yl)amine]
IC50 [1]: < 120 nM

Cc1cc(NC2CCCC2)c2[nH]c(-c3nc(C(=O)O)cs3)cc2c1 [Example 29, 2-(7-cyclopentylamino-5-methyl-1H-indol-2-yl)-thiazole-4-carboxylic acid]
IC50 [1]: 1460 nM

Cc1cc(NC2CCCC2)c2[nH]c(-c3nc(CO)cs3)cc2c1 [Example 30, [2-(7-cyclopentylamino-5-methyl-1H-indol-2-yl)-thiazole-4-yl]-methanol]
IC50 [1]: < 120 nM

Cc1cc(NC2CCCC2)c2[nH]c(-c3nnco3)cc2c1 [Example 32, cyclopentyl-(5-methyl-2-[1,3,4]oxadiazol-2-yl-1H-indol-7-yl)-amine]
IC50 [1]: < 120 nM

Cc1cc(NC2CCC(=O)CC2)c2[nH]c(-c3ccccn3)cc2c1 [Example 38, 4-(5-methyl-2-pyridin-2-yl-1H-indol-7-ylamino)-cyclohexanone]
IC50 [1]: < 120 nM

Cc1cc(NCC2CCCC2)c2[nH]c(-c3ccccn3)cc2c1 [Example 40, cyclopentylmethyl-(5-methyl-2-pyridin-2-yl-1H-indol-7-yl)-amine]
IC50 [1]: < 120 nM

Cc1cc(NC2CCCC2)c2[nH]c(C3CCCCC3)cc2c1 [Example 47, (2-cyclohexyl-5-methyl-1H-indol-7-yl)-cyclopentyl-amine]
IC50 [1]: < 120 nM

CC(=O)N1CCC(Nc2cc(C)cc3cc(-c4ccccc4)[nH]c23)CC1 [Example 51, 1-[4-(5-methyl-2-phenyl-1H-indol-7-ylamino)-piperidin-1-yl]-ethanone]
IC50 [1]: 260 nM

Cc1cc(NC2CCC(C(=O)NCCN3CCOCC3)CC2)c2[nH]c(-c3ccccc3)cc2c1 (stereo not shown) [Example 56, 4-(5-methyl-2-phenyl-1H-indol-7-ylamino)-cyclohexane carboxylic acid (2-morpholin-4-yl-ethyl)-amide]
IC50 [1]: 200 nM

Cc1cc(NCC2CCOCC2)c2[nH]c(-c3ccccc3)cc2c1 [Example 58, (5-methyl-2-phenyl-1H-indol-7-yl)-(tetrahydro-pyran-4-ylmethyl)-amine]
IC50 [1]: < 120 nM

O=C(O)Cc1cc(NC2CCCC2)c2[nH]c(-c3ccccc3)cc2c1 [Example 75, (7-cyclopenthylamino-2-phenyl-1H-indol-5-yl)-acetic acid]
IC50 [1]: < 120 nM

OCCc1cc(NC2CCCC2)c2[nH]c(-c3ccccc3)cc2c1 [Example 76, 2-(7-cyclopenthylamino-2-phenyl-1H-indol-5-yl)-ethanol]
IC50 [1]: < 120 nM

Cc1cc(NC2CCC(F)(F)CC2)c2[nH]c(C3=NC(CC(=O)O)CS3)cc2c1 (stereo not shown) [Example 79]
IC50 [3]: 3300 nM

O=C(O)CC1CSC(c2cc3cccc(NC4CCCC4)c3[nH]2)=N1 (stereo not shown) [Example 83]
IC50 [3]: 3660 nM
IC50 [1]: 729 nM

CC(=O)N1CCC(Nc2cccc3cc(C4=NC(CC(=O)O)CS4)[nH]c23)C1 (stereo not shown) [Example 84]
IC50 [3]: 7110 nM

O=S1(=O)CCN(Cc2cc(NC3CCOCC3)c3[nH]c(-c4ccccc4)c(Br)c3c2)CC1 [Example 139]
IC50 [3]: < 100 nM

Brc1c(-c2ccccc2)[nH]c2c(NC3CCOCC3)cc(CN3CCOCC3)cc12 [Example 140, [3-bromo-(5-morpholin-4-yl)methyl-2-phenyl-1H-indol-7-yl]-(tetrahydropyran-4-yl)-amine]
IC50 [3]: < 100 nM

O=S1(=O)CCN(Cc2cc(NC3CCCC3)c3[nH]c(-c4ccccc4)c(Br)c3c2)CC1 [Example 141, [3-bromo-5-(1,1-dioxo-thiomorpholin-4-yl methyl)-2-phenyl-1H-indol-7-yl]-cyclopentyl-amine]
IC50 [3]: < 100 nM

O=S1(=O)CCN(Cc2cc(NCC3CCOCC3)c3[nH]c(-c4ccccc4)c(Br)c3c2)CC1 [Example 142, [3-bromo-5-(1,1-dioxo-thiomorpholin-4-ylmethyl)-2-phenyl-1H-indol-7-yl]-(tetrahydro-pyran-4-ylmethyl)-amine]
IC50 [3]: < 100 nM
IC50 [1]: 300 nM

Clc1cc(NC2CCOCC2)c2[nH]cc(-c3ccccc3)c2c1 [Example 143, (5-chloro-3-phenyl-1H-indol-7-yl)-(tetrahydro-pyran-4-yl)-amine]
IC50 [3]: < 100 nM

Clc1cc(NC2CCCC2)c2[nH]cc(-c3ccccc3)c2c1 [Example 144, (5-chloro-3-phenyl-1H-indol-7-yl)-(cyclopentyl)-amine]
IC50 [3]: < 100 nM

Clc1cc(NCC2CCOCC2)c2[nH]cc(-c3ccccc3)c2c1 [Example 145, (5-chloro-3-phenyl-1H-indol-7-yl)-(tetrahydropyran-4-ylmethyl)-amine]
IC50 [3]: < 100 nM

C[Si](C)(C)c1[nH]c2c(NC3CCOCC3)cc(CN3CCS(=O)(=O)CC3)cc2c1-c1ccccc1 [Example 146, [5-(1,1-dioxo-thiomorpholin-4-ylmethyl)-3-phenyl-2-trimethylsilanyl-1H-indol-7-yl]-(tetrahydropyran-4-yl)-amine]
IC50 [3]: 823 nM
IC50 [1]: 603 nM

O=C1CN(Cc2c(-c3ccccc3)[nH]c3c(NC4CCCC4)cc(Cl)cc23)CCN1 [Example 147, 4-(5-chloro-7-cyclopentylamino-2-phenyl-1H-indol-3-ylmethyl)-piperazin-2-one]
IC50 [3]: 1080 nM

O=C1CN(Cc2c(-c3ccccc3)[nH]c3c(NC4CCOCC4)cc(Cl)cc23)CCN1 [Example 148, 4-[5-chloro-2-phenyl-7-(tetrahydropyran-4-ylamino)-1H-indol-3-ylmethyl]-piperazin-2-one]
IC50 [3]: 2350 nM

O=C1CN(Cc2c(-c3ccccc3)[nH]c3c(NCC4CCOCC4)cc(Cl)cc23)CCN1 [Example 149, 4-{5-chloro-2-phenyl-7-[(tetrahydropyran-4-ylmethyl)-amino]-1H-indol-3-ylmethyl}-piperazin-2-one]
IC50 [3]: 1450 nM

COc1ccc(-c2n[nH]c3c(NC4CCCC4)cccc23)cc1 [Example 150, cyclopentyl-[3-(4-methoxyphenyl)-1H-indazol-7-yl]-amine]
IC50 [3]: 210 nM

COc1ccc(-c2n[nH]c3c(NC4CCOCC4)cccc23)cc1 [Example 151, [3-(4-methoxyphenyl)-1H-indazol-7-yl]-(tetrahydropyran-4-yl)-amine]
IC50 [3]: 384 nM

COc1ccc(-c2n[nH]c3c(NCC4CCOCC4)cccc23)cc1 [Example 152, [3-(4-methoxyphenyl)-1H-indazol-7-yl]-(tetrahydropyran-4-ylmethyl)-amine]
IC50 [3]: 590 nM

C[C@H](NC(=O)C(=O)Nc1ccccc1C(C)(C)C)C(=O)N[C@@H](CC(=O)O)C(=O)COc1c(F)c(F)cc(F)c1F [IDN6556, reference compound]
viability after 72 hours, compared with viability after 24 hours [2]: about 50%

— patent US8349885B2, “Indole and indazole derivatives having a cell-, tissue- and organ-preserving effect” (LG Life Sciences Ltd., priority 2008, dated 2013)
